# Key:
# Type in all cases: physicochemical
# [1] = Solubility of dye to organic solvent; conditions: 50° C., mass % of the dye to the mass of the entire solution
# Procedure: Regarding the dyes (A11-1) to (A11-10) and (A11-20) to (A11-27) obtained above, solubility to organic solvent was evaluated as follows.
# Three kinds of solvents, cyclohexanone, methyl isobutyl ketone (MIBK), toluene, were used as the organic solvent in the solubility test. Note that in Table 3, % is mass % of the dye to the mass of the entire solution. Further, the temperature of each organic solvent in the solubility test was 50° C.
# [2] = Absorption characteristics: transmission spectrum of near-infrared absorbing layer of NIR filter (UV-visible spectrophotometer)
# Method in brief: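 Transmission spectra of the near-infrared absorbing layer on glass were recorded with a UV-visible spectrophotometer at normal incidence, with the glass plate's absorption and interface reflections subtracted. From the 650–800 nm region, λa (shortest wavelength at 1% transmittance) and λc (70% transmittance, shorter side) were taken. The Is value is nd(B)×(λa−λc), with λb−λa fixed at 30 nm.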
# [3] = Transmittance and 20% shift (incident angle dependency) of NIR filter having selected wavelength shielding layer; conditions: NIR filter 110: dye 3.0 parts by mass per 100 of polyester resin B-OKP2 (nd(B) 1.64), with selected wavelength shielding layer and antireflection layer
# Procedure: In the present filter, the visible light transmittance is secured sufficiently by satisfying the condition (iv-1), and moreover, angle dependency which the dielectric multilayer film has is solved, and the light shielding property of the near-infrared region is secured sufficiently in a wide wavelength region without being affected by the influence of the incident angle by satisfying the conditions (iv-2) and (iv-3). • Here, in the condition (iv-3), the angle dependency is evaluated by using a shift of wavelength in 20% transmittance when the incident angle is 0 degree and when it is 30 degrees as an index.
# Transmittance of the NIR filter of Example 110 was measured as transmittance of light incident from a direction orthogonal to a main surface, that is, light with an incident angle of 0 degree and transmittance of light incident from a direction making an angle of 30 degrees relative to a line orthogonal to the main surface, that is, light with an incident angle of 30 degrees by using an ultraviolet visible light spectrophotometer (U-4100 type spectrophotometer made by Hitachi High-Technologies Corporation), so as to obtain a transmission spectrum. A 20% shift (30 degrees) is a difference between a value of a wavelength with transmittance of 20% of light with an incident angle of 0 degree (indicated as “λ20-0”) and a value of a wavelength with transmittance of 20% of light with an incident angle of 30 degrees (indicated as “λ20-30”).
# Moreover, a transmission spectrum of light with an incident angle of 40 degrees was obtained similarly. Further, the difference between a value of a wavelength with transmittance of 20% of light with an incident angle of 0 degree (λ20-0) and a value of a wavelength with transmittance of 20% of light with an incident angle of 40 degrees (indicated as “λ20-40”) was obtained as a 20% shift (40 degrees).
# The near-infrared absorbing layer was formed on a glass plate similarly to Example 7 except that a glass plate on which the selected wavelength shielding layer is formed was used on a face opposite to an application face of the coating liquid for forming the near-infrared absorbing layer. Moreover, the antireflection layer was formed on the near-infrared absorbing layer, so as to obtain the NIR filter 110. The film thickness in the selected wavelength shielding layer in its entirety was approximately 8.9 μm, and the film thickness in the antireflection layer in its entirety was approximately 0.34 μm. The transmittance of the obtained NIR filter 110 was measured, and 20% shifts (30 degrees) and (40 degrees) were obtained. Results thereof are presented in Table 9 together with structures of the near-infrared absorbing layer. FIG. 6 illustrates transmission spectra of light with incident angles of 0 degree, 30 degrees and 40 degrees of the wavelength region of 660 nm to 690 nm in the NIR filter 110 by a solid line, a dotted line and a dashed line, respectively.
# [4] = transparent resin acrylic resin BR50, nd(B) 1.56, film thickness 2.3 μm
# [5] = transparent resin polycarbonate EP5000, nd(B) 1.63, film thickness 2.4 μm
# [6] = transparent resin polycarbonate SP3810, nd(B) 1.63, film thickness 1.0 μm
# [7] = transparent resin polycarbonate SP3810, nd(B) 1.63, film thickness 2.8 μm
smiles,measurement,setting,value
CCCCC(CC)C(=O)Nc1cc2c(cc1C1=C([O-])C(=c3cc4c(cc3NC(=O)C(CC)CCCC)=[N+](C(C)C)C(C)C4(C)C)C1=O)C(C)(C)C(C)N2C(C)C (stereo not shown) [Example A11-7],Solubility to organic solvent: Cyclohexanone,[1]; cyclohexanone,10%< mass %
same,Solubility to organic solvent: MIBK,[1]; methyl isobutyl ketone,3.00% mass %
same,Solubility to organic solvent: Toluene,[1]; toluene,10%< mass %
same,430 nm to 600 nm Average transmittance,[2]; [4],96.1%
same,Is value (nd(B)×(λa-λc)),[2]; [4],101.5
same,λa,[2]; [4],695 nm
same,λa − λc,[2]; [4],65 nm
same,λb,[2]; [4],715 nm
same,λb − λa,[2]; [4],30 nm
same,λc,[2]; [4],630 nm
same,λmax,[2]; [4],712 nm
same,430 nm to 600 nm Average transmittance,[2]; [5],96.9%
same,Is value (nd(B)×(λa-λc)),[2]; [5],104.5
same,λa,[2]; [5],700 nm
same,λa − λc,[2]; [5],64 nm
same,λb,[2]; [5],730 nm
same,λb − λa,[2]; [5],30 nm
same,λc,[2]; [5],636 nm
same,λmax,[2]; [5],715 nm
same,430 nm to 600 nm Average transmittance,[2]; [6],95.8%
same,Is value (nd(B)×(λa-λc)),[2]; [6],106.3
same,λa,[2]; [6],700 nm
same,λa − λc,[2]; [6],65 nm
same,λb,[2]; [6],730 nm
same,λb − λa,[2]; [6],30 nm
same,λc,[2]; [6],635 nm
same,λmax,[2]; [6],712 nm
same,430 nm to 600 nm Average transmittance,[2]; [7],96.5%
same,Is value (nd(B)×(λa-λc)),[2]; [7],104.6
same,λa,[2]; [7],700 nm
same,λa − λc,[2]; [7],64 nm
same,λb,[2]; [7],730 nm
same,λb − λa,[2]; [7],30 nm
same,λc,[2]; [7],636 nm
same,λmax,[2]; [7],716 nm
same,20% shift 30 degrees (λ20-0-λ20-30),[3],1 nm
same,20% shift 40 degrees (λ20-0-λ20-40),[3],3 nm
same,20%-transmittance wavelength of 0-degree incident angle (λ20-0),[3],668 nm
same,20%-transmittance wavelength of 30-degree incident angle (λ20-30),[3],667 nm
same,20%-transmittance wavelength of 40-degree incident angle (λ20-40),[3],665 nm
same,Transmittance 420 nm to 620 nm (average),[3],88.6%
same,Transmittance 700 nm to 1100 nm (average),[3],0.03%
same,Transmittance 710 nm to 1100 nm (maximum),[3],0.28%

# — patent US10495796B2, “Near-infrared cut filter” (AGC INC., priority 2012, dated 2019)
